# Assay results as given in patent publication US20120157453A1, “RAF INHIBITOR COMPOUNDS AND METHODS OF USE THEREOF” (GENENTECH, INC., priority 2009, published 2012).
# Where two headings read alike, the source gives them in different places.
# How the values were obtained:
# V600E full-length B-Raf = target: T1, V600E full-length B-Raf (Homo sapiens, UniProt P15056, V600E); test: B-Raf IC50 assay (incorporation of 33P phosphate into FSBA-modified MEK); format: biochemical
# T1 construct: 1 μM FSBA-MEK and 20 nM V600E full-length B-Raf; made in house; host or cells: Sf9 insect cells (baculovirus)
# Source text: Determining the activity of Raf in the sample is possible by a number of direct and indirect detection methods (US 2004/0082014). Activity of human recombinant B-Raf protein may be assessed in vitro by assay of the incorporation of radio labeled phosphate to recombinant MAP kinase (MEK), a known physiologic substrate of B-Raf, according to US 2004/0127496 and WO 03/022840. The activity/inhibition of V600E full-length B-Raf was estimated by measuring the incorporation of radio labeled phosphate from [γ-^33P]ATP into FSBA-modified wild-type MEK (see Example A).
# Activity of human recombinant B-Raf protein may be assessed in vitro by assay of the incorporation of radio labeled phosphate to recombinant MAP kinase (MEK), a known physiologic substrate of B-Raf, according to US 2004/0127496 and WO 03/022840. Catalytically active human recombinant B-Raf protein is obtained by purification from sf9 insect cells infected with a human B-Raf recombinant baculovirus expression vector.
# The activity/inhibition of V600E full-length B-Raf was estimated by measuring the incorporation of radio labeled phosphate from [γ-^33P]ATP into FSBA-modified wild-type MEK. The 30-μL assay mixtures contained 25 mM Na Pipes, pH 7.2, 100 mM KCl, 10 mM MgCl2, 5 mM β-glycerophosphate, 100 μM Na Vanadate, 4 μM ATP, 500 nCi [γ-^33P]ATP, 1 μM FSBA-MEK and 20 nM V600E full-length B-Raf. Incubations were carried out at 22° C. in a Costar 3365 plate (Corning). Prior to the assay, the B-Raf and FSBA-MEK were preincubated together in assay buffer at 1.5× (20 μL of 30 nM and 1.5 μM, respectively) for 15 minutes, and the assay was initiated by the addition of 10 μL of 10 μM ATP. Following the 60-minute incubation, the assay mixtures were quenched by the addition of 100 μL of 25% TCA, the plate was mixed on a rotary shaker for 1 minute, and the product was captured on a Perkin-Elmer GF/B filter plate using a Tomtec Mach III Harvester. After sealing the bottom of the plate, 35 μL of Bio-Safe II (Research Products International) scintillation cocktail were added to each well and the plate was top-sealed and counted in a Topcount NXT (Packard).
# [1] = system: basal ERK1/2 phosphorylation in Malme-3M cells; test: Cellular ERK 1/2 phosphorylation assay; format: cell-based; conditions: Homo sapiens, 1 h, pERK normalized to total ERK
# Description: Inhibition of basal ERK1/2 phosphorylation was determined by the following in vitro […], which comprises incubating cells with a compound of Formula II for 1 hour and quantifying the fluorescent pERK signal on fixed cells and normalizing to total ERK signal.
# Materials and Methods: Malme-3M cells were obtained from ATCC and grown in RPMI-1640 supplemented with 10% fetal bovine serum. Cells were plated in 96-well plates at 24,000 cells/well and allowed to attach for 16-20 hours at 37° C., 5% CO2. The media was removed, and DMSO-diluted compounds were added in RPMI-1640 at a final concentration of 1% DMSO. The cells were incubated with the compounds for 1 hour at 37° C., 5% CO2. The cells were washed with PBS and fixed in 3.7% formaldehyde in PBS for 15 minutes. This was followed by washing in PBS/0.05% Tween20 and permeabilizing in −20° C. 100% MeOH for 15 minutes. Cells were washed in PBS/0.05% Tween20 then blocked in Odyssey blocking buffer (LI-COR Biosciences) for 1 hour. Antibodies to phosphorylated ERK (1:400, Cell Signaling #9106, monoclonal) and total ERK (1:400, Santa Cruz Biotechnology #sc-94, polyclonal) were added to the cells and incubated 16-20 hours at 4° C. After washing with PBS/0.05% Tween20, the cells were incubated with fluorescently-labeled secondary antibodies (1:1000 goat anti-rabbit IgG-IRDye800, Rockland and 1:500 goat anti-mouse IgG-Alexa Fluor 680, Molecular Probes) for an additional hour. Cells were then washed and analyzed for fluorescence at both wavelengths using the Odyssey Infrared Imaging System (LI-COR Biosciences). Phosphorylated ERK signal was normalized to total ERK signal.
# [2] = B-Raf V600E, bound less than 1 μM, read-out: IC50
# [3] = Example A assay, 4 μM ATP, 20 nM enzyme, 60-minute incubation, read-out: BRAF V600E IC50
# T1 sequence (P15056 whole entry V600E): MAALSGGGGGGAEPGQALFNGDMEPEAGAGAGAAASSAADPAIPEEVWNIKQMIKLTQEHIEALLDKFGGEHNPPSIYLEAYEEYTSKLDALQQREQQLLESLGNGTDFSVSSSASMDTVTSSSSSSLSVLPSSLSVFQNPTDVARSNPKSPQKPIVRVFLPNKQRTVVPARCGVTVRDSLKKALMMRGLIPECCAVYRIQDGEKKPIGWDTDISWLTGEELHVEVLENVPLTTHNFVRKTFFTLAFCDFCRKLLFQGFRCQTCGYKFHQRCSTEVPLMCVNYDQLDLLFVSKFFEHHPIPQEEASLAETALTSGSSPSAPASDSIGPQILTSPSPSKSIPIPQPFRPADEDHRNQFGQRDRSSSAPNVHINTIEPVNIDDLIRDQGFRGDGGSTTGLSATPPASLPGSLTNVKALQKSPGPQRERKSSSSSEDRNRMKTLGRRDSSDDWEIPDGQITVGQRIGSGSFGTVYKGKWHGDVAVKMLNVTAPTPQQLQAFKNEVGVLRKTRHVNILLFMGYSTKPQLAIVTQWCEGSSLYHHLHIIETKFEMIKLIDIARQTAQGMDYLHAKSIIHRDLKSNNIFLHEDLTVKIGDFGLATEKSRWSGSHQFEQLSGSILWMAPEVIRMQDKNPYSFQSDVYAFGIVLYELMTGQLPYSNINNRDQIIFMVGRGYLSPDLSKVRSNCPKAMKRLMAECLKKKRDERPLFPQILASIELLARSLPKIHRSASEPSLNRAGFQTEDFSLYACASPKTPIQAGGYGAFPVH
IC50 (V600E full-length B-Raf; [2]) [nM],IC50 (V600E full-length B-Raf; [3]) [nM],SMILES,IC50 ([1]; bound less than 1 μM) [nM],IC50 [1] [nM],IC50 ([1]; bound less than 500 nM) [nM]
< 1000,28.2,"CCCS(=O)(=O)Nc1ccc(F)c(NC(=O)Nc2ncnc3sc(C)c(C)c23)c1F [Example 20, Propane-1-sulfonic acid {3-[3-(5,6-dimethyl-thieno[2,3-d]pyrimidin-4-yl)-ureido]-2,4-difluoro-phenyl}-amide]",< 1000,–,–
< 1000,90.8,"CCCS(=O)(=O)Nc1ccc(Cl)c(NC(=O)Nc2ncnc3oc(C)c(C)c23)c1F [Example 21, Propane-1-sulfonic acid {4-chloro-3-[3-(5,6-dimethyl-furo[2,3-d]pyrimidin-4-yl)-ureido]-2-fluoro-phenyl}-amide]",< 1000,522,–
< 1000,18.8,"CCCS(=O)(=O)Nc1ccc(Cl)c(NC(=O)Nc2ncnc3sccc23)c1F [Example 22, Propane-1-sulfonic acid [4-chloro-2-fluoro-3-(3-thieno[2,3-d]pyrimidin-4-yl-ureido)-phenyl]-amide]",< 1000,–,< 500
